Legend:
[1] = tested on: COMT; assay: COMT activity (methylation of adrenaline to metanephrine) in rat liver homogenates; type: biochemical; conditions: rat liver homogenate; test compound 3 μM; means±SEM, n=4-8
[2] = target: T1, COMT (Homo sapiens, UniProt P21964); assay: COMT activity in intact SK-N-SH cell monolayers; type: cell-based; conditions: SK-N-SH cells; test compound 100 nM; means±SEM, n=4-8
T1 construct: COMT activity was evaluated in cell monolayers by the ability to methylate adrenaline; host or cells: SK-N-SH cells
T1 sequence (P21964 1-271): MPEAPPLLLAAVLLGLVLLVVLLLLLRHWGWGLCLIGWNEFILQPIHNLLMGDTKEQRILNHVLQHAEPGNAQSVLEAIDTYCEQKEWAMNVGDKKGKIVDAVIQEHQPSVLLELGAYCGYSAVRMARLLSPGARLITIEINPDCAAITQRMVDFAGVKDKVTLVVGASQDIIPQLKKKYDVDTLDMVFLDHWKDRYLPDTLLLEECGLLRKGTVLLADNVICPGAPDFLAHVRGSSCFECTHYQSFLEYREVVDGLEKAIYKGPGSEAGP

[3] = tested on: COMT; assay: COMT activity (methylation of adrenaline to metanephrine) in rat brain homogenates; type: biochemical; conditions: rat brain homogenate; test compound 100 nM; means±SEM, n=4-8

| SMILES | COMT activity, Liver (% of control) [1] | COMT activity, SK-N-SH (% of control) [2] | COMT activity, Brain (% of control) [3] |
| --- | --- | --- | --- |
| O=C1CCCc2cc(O)c(O)c([N+](=O)[O-])c21 [Compound 1, 6,7-Dihydroxy-8-nitro-3,4-dihydro-2H-naphthalen-1-one] | 1.2 ± 0.2 % of control | 46 ± 1 % of control | 15 ± 4 % of control |
| O=C1CCc2cc(O)c(O)c([N+](=O)[O-])c21 [Compound 2, 5,6-Dihydroxy-7-nitro-indan-1-one] | 1.3 ± 0.7 % of control | 24 ± 1 % of control | 9 ± 1 % of control |
| COc1ccc(C=C2CCc3cc(O)c(O)c([N+](=O)[O-])c3C2=O)cc1OC [Compound 4, 2-(3,4-Dimethoxy-benzylidene)-6,7-dihydroxy-8-nitro-3,4-dihydro-2H-naphthalen-1-one] | 2.0 ± 1.0 % of control | 25 ± 1 % of control | 20 ± 2 % of control |
| O=[N+]([O-])c1c(O)c(O)cc2c1C(=NO)CC2 [Compound 6, 5,6-Dihydroxy-7-nitro-indan-1-one Oxime] | 1.77 ± 0.1 % of control | 39 ± 3 % of control | 33 ± 1 % of control |
| COc1ccc(C=C2Cc3cc(O)c(O)c([N+](=O)[O-])c3C2=O)cc1OC [Compound 7, 2-(3,4-Dimethoxy-benzylidene)-5,6-dihydroxy-7-nitro-indan-1-one] | 0.6 ± 0.3 % of control | 23 ± 1 % of control | 14 ± 1 % of control |
| CN(C)c1ccc(C=C2Cc3cc(O)c(O)c([N+](=O)[O-])c3C2=O)cc1 [Compound 8, 2-(4-dimethylamino-benzylidene)-5,6-dihydroxy-7-nitro-indan-1-one] | 1.0 ± 0.1 % of control | 48 ± 3 % of control | 30 ± 4 % of control |
| CN(C)c1ccc(C=C2CCc3cc(O)c(O)c([N+](=O)[O-])c3C2=O)cc1 [Compound 9, 2-(4-Dimethylamino-benzylidene)-6,7-dihydroxy-8-nitro-3,4-dihydro-2H-naphthalen-1-one] | 9.0 ± 1.6 % of control | 8 ± 1 % of control | 47 ± 5 % of control |
| COc1cc(C=C2Cc3cc(O)c(O)c([N+](=O)[O-])c3C2=O)cc([N+](=O)[O-])c1O [Compound 10, 5,6-Dihydroxy-2-(4-hydroxy-3-methoxy-5-nitro-benzylidene)-7-nitro-indan-1-one] | 0.3 ± 0.1 % of control | 24 ± 2 % of control | 14 ± 1 % of control |
| COc1cc(C=C2CCc3cc(O)c(O)c([N+](=O)[O-])c3C2=O)cc([N+](=O)[O-])c1O [Compound 11, 6,7-Dihydroxy-2-(4-hydroxy-3-methoxy-5-nitro-benzylidene)-8-nitro-3,4-dihydro-2H-naphthalen-1-one] | 1.1 ± 0.3 % of control | 47 ± 2 % of control | 32 ± 2 % of control |
| O=C1C(=Cc2ccc(O)c(O)c2)Cc2cc(O)c(O)c([N+](=O)[O-])c21 [Compound 12, 2-(3,4-dihydroxy-benzylidene)-5,6-dihydroxy-7-nitro-indan-1-one] | 0.6 ± 0.0 % of control | 34 ± 1 % of control | 18 ± 1 % of control |
| O=C1C(=Cc2ccc(O)c(O)c2)CCc2cc(O)c(O)c([N+](=O)[O-])c21 [Compound 13, 2-(3,4-Dihydroxy-benzylidene)-6,7-dihydroxy-8-nitro-3,4-dihydro-2H-naphthalen-1-one] | 2.3 ± 0.1 % of control | 46 ± 1 % of control | 27 ± 1 % of control |
| O=C(CCc1ccccc1)c1ccc(O)c(O)c1[N+](=O)[O-] [Compound 14, 1-(3,4-Dihydroxy-2-nitro-phenyl)-3-phenyl-propan-1-one] | 0.3 ± 0.0 % of control | 5 ± 2 % of control | 5 ± 1 % of control |
| O=C(CCCc1ccccc1)c1ccc(O)c(O)c1[N+](=O)[O-] [Compound 15, 1-(3,4-dihydroxy-2-nitro-phenyl)4-phenyl-butan-1-one] | 0.5 ± 0.0 % of control | 13 ± 4 % of control | 7 ± 2 % of control |
| O=C1C(=Cc2cc(O)c(O)c([N+](=O)[O-])c2)Cc2cc(O)c(O)c([N+](=O)[O-])c21 [Compound 16, 2-(3,4-Dihydroxy-5-nitro-benzylidene)-5,6-dihydroxy-7-nitro-indan-1-one] | 2.0 ± 0.2 % of control | 92 ± 1 % of control | 20 ± 1 % of control |
| CCCCC(=O)c1ccc(O)c(O)c1[N+](=O)[O-] [Compound 17, 1-(3,4-dihydroxy-2-nitro-phenyl)-pentan-1-one] | 0.4 ± 0.0 % of control | 24 ± 4 % of control | 8 ± 1 % of control |
| O=C1c2ccccc2C(=O)c2c1cc(O)c(O)c2[N+](=O)[O-] [Compound 18, 2,3-Dihydroxy-1-nitro-anthraquinone] | 2.0 ± 0.0 % of control | 70 ± 5 % of control | 17 ± 1 % of control |
| CCCC(=O)Oc1ccc(C(=O)CCc2ccccc2)c([N+](=O)[O-])c1OC(=O)CCC [Compound 19, Butyric acid, 6-butyryloxy-2-nitro-3-(3-phenyl-propionyl)-phenyl ester] | 0.2 ± 0.1 % of control | 0 ± 0 % of control | 8 ± 1 % of control |
| CCOC(=O)Oc1ccc(C(=O)c2ccccc2)c([N+](=O)[O-])c1OC(=O)OCC [Compound 21, Carbonic acid, 4-benzoyl-2-ethoxycarbonyloxy-3-nitro-phenyl ester ethyl ester] | 0.3 ± 0.2 % of control | 1 ± 1 % of control | 11 ± 1 % of control |
| CCOC(=O)Oc1ccc(C(=O)CCc2ccccc2)c([N+](=O)[O-])c1OC(=O)OCC [Compound 22, Carbonic acid, 2-ethoxycarbonyloxy-3-nitro-4-(3-phenyl-propionyl)-phenyl ester ethyl ester] | 0.3 ± 0.1 % of control | 12 ± 1 % of control | 9 ± 0 % of control |
| CCOC(=O)Oc1cc(C(=O)c2ccccc2)c(C(=O)c2ccccc2)c([N+](=O)[O-])c1OC(=O)OCC [Compound 23, Carbonic Acid 4,5-Dibenzoyl-2-ethoxycarbonyloxy-3-nitro-phenyl Ester Ethyl Ester] | 2.5 ± 1.2 % of control | 24 ± 1 % of control | 10 ± 1 % of control |
| CC(=O)Oc1cc2c(c([N+](=O)[O-])c1OC(C)=O)C(=O)C(C)(C)CC2 [Compound 25, Acetic Acid, 3-Acetoxy-7,7-dimethyl-1-nitro-8-oxo-5,6,7,8-tetrahydro-naphthalen-2-yl Ester] | 1.7 ± 0.1 % of control | 39 ± 1 % of control | 19 ± 1 % of control |
| O=C(CCN1CCOCC1)c1ccc(O)c(O)c1[N+](=O)[O-] [Compound 26, 1-(3,4-dihydroxy-2-nitro-phenyl)-3-morpholin4-yl-propan-1-one] | 0.9 ± 0.1 % of control | 12 ± 1 % of control | 9 ± 0 % of control |
| O=C(CCN1CCCCC1)c1ccc(O)c(O)c1[N+](=O)[O-] [Compound 27, 1-(3,4-Dihydroxy-2-nitro-phenyl)-3-piperidin-1-yl-propan-1-one] | 2.4 ± 0.2 % of control | 5 ± 1 % of control | 15 ± 1 % of control |
| CC(=O)OC(=Cc1ccccc1)c1ccc(OC(C)=O)c(OC(C)=O)c1[N+](=O)[O-] [Compound 46, Acetic Acid, 2-Acetoxy4-(I-acetoxy-2-phenyl-vinyl)-3-nitro-phenyl Ester] |  | 1 ± 1 % of control |  |

Reference: US20020037931A1, “Substituted nitrated catechols, their use in the treatment of some central and peripheral nervous system disorders and pharmaceutical compositions containing them” (priority 2000, published 2002)
